Test results: US7557109B2, “Treatment for attention-deficit hyperactivity disorder” (priority 2001, dated 2009)

Columns and labels:
wild-type mice [1] = experiment: DRL-36s schedule after FR5 conditioning, wild-type mice; type: in vivo
Method: Experiments were conducted in eight identical mouse operant chambers (16×14×13 cm) with stainless steel grid floors (ENV-307M; Med Associates Inc., Georgia, Vt., USA) housed in sound-insulating and ventilated cubicles. Each chamber was equipped with two ultra-sensitive retractable levers, one on each side of a food cup containing photocells to register nose poke behavior and in which a pellet dispenser delivered 20 mg food pellets (Formula A/I, P.J. Noyes Company Inc., Lancaster, N.H., USA). A red house light (50 lux) was located in the center of the wall opposite to the food cup and levers. Stimulus lights were located above each lever and above the food cup. Experimental sessions were controlled and data were recorded by a computer.
Mice trained on DRL procedure first received operant conditioning. DRL-36s task was adapted from procedures used in rats (O'Donnell and Seiden, supra). Briefly, mice first learned to respond for food under a DRL 6 sec schedule, which means that mice had to wait at least 6 seconds between successive lever presses in order to obtain a food reward. Subsequently the schedule requirement was increased every session in steps of 6 sec to 36 sec (DRL 36 sec). Each session started with the illumination of the house light, the stimulus light above the food cup and the presentation of the left lever for the duration of the session. […] If the mouse presses too soon, no reinforcement is given, the clock is reset to zero, and a new 36-sec waiting period starts. In this way, the DRL-36s schedule task primarily measures waiting strategies which reflect hyperactivity-impulsivity behaviors associated with ADHD. Animals were trained until performances on the DRL 36 sec schedule had stabilized (approximately 25 sessions). All training sessions lasted 60 min and were conducted 5 days per week from Monday-Friday. The total number of lever presses (responses), the total number of reinforcements, and the inter-response times (IRT) are recorded.
Data were analyzed as described elsewhere (Richards et al., J. Exp. Anal. Behav. 60:361-385, 1993; Sabol et al., Psychopharmacology 121:57-65, 1995). The inter-response time (IRT) analysis included three measures for the characterization of DRL 36 sec IRT distributions: peak area, peak location and burst ratio. Only peak area (PkA) and peak location (PkL) are presented. The PkA measure is the area of the obtained IRT distribution of a mouse above the corresponding negative exponential, a computation based on mean of obtained IRT durations excluding the burst component of IRT<3 sec (see Richards et al., supra, for details). […] Thus, decreases in PkA indicate that the mouse's IRT distribution becomes more similar to random performance indicating loss of schedule control. PkL is calculated as the median of the area of the obtained IRT distribution above the corresponding negative exponential.
Mice were conditioned and challenged on a DRL-36s schedule according to the methods of Example 7, with the following modifications. Because 1BKO mice had difficulty learning the DRL-36s schedule following conditioning on an FR1, wild-type and 1BKO mice were conditioned on a fixed rate 5 (FR5) schedule. In FR5, instead of pressing the lever once for a reward, animals have to press 5 times. The rationale for changing the operant conditioning was that by increasing the number of responses necessary for reinforcement, the wild-type mice should have greater difficulty and the 1BKO (which have higher response rates anyway) should have less difficulty getting reinforcements.

dopamine receptors = conditions: read-out: Ki, affinity for dopamine receptors; cited from earlier work
wild-type mice [2] = experiment: Open-field locomotor activity, wild-type littermates; type: in vivo
Source text: (§1) Heterozygote coloboma mice were originally purchased from The Jackson Laboratory (Bar Harbor, Me.) and were bred and maintained in our colony. In the current study, 20 mutant mice and 25 wild-type littermates, all aged 8 to 10 weeks, were used. Animals were divided into 4 groups: mutant/drug-treatment (n=11), mutant/vehicle-control (n=9), wild-type/drug-treatment (n=13), wild-type/vehicle-control (n=12). Age and gender were balanced among groups. All animals were housed as littermates (2-4 mice per cage) and were maintained on ad libitum food and water with a 12 hr light/dark cycle.
(§2) Open-field testing was performed under normal lighting conditions. Mice were brought into the experimental room and allowed at least 1 hr of acclimatization. Thirty minutes prior to testing, animals received an ip. injection of either d-amphetamine (4 mg/kg), eltoprazine (0.5 mg/kg) or saline. The mice were then placed in the activity monitor arenas (27×27×20 cm, Med Associates). Four animals of matching genotype and treatment were tested at one time. Each testing session lasted 40 minutes, after which animals were returned to their home cages. An automated infrared beam array system measured locomotor activity (total distance traveled) and number of center entries (zone crossings).

[3] = tested on: coloboma (Cm) mutant mice; type: in vivo
Source text: as §1, §2

[4] = 0.5 mg/kg i.p. vs saline (FIG. 6C, 6D)

c1cc2c(c(N3CCNCC3)c1)OCCO2 [eltoprazine, 1-(2,3-dihydro-1,4-benzodioxanyl-5-yl) piperazine]
number of reinforcements (wild-type mice [1]; 0.5 mg/kg and 1 mg/kg i.p. (FIG. 13A)): significantly decreased reinforcements
response rate (wild-type mice [1]; 0.5 mg/kg i.p. (FIG. 13B)): significantly decreased response rates
Ki (dopamine receptors): > 1000 nM
locomotor activity (distance traveled or zones crossed) (wild-type mice [2]; 0.5 mg/kg i.p.): did not influence the locomotor activity
exploratory preference (center vs periphery of arena) (wild-type mice [2]; 0.5 mg/kg i.p. (FIG. 6A, 6B)): no effect on exploratory preference
rearing behavior (wild-type mice [2]; [4]): same pattern of rearing behavior
reduction of total ambulatory distance from that of saline-treated Cm mutants ([3]; 0.5 mg/kg i.p.): more than 50%
number of zone crossings ([3]; 0.5 mg/kg i.p. (FIG. 5B)): decreased the number of zone crossings in Cm mutants to within the range of saline-treated wild-type mice
exploratory preference (center vs periphery of arena) ([3]; 0.5 mg/kg i.p. (FIG. 6A, 6B)): no effect on exploratory preference
rearing behavior [3, 4]: same pattern of rearing behavior
total ambulatory distance ([3]; 0.5 mg/kg i.p., 40 min session, saline 17725±6636 cm (FIG. 5A)): 8641±1811
sedative effect ([3]; 0.5 mg/kg i.p., open field): no sedative effect
